Data as given in ChEMBL document CHEMBL1201862, “PubChem BioAssay data set” (2004).
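96-well plates; 48 h exposure; 5 concentrations. Endpoints by linear interpolation between flanking doses. Not reached: highest tested concentration assigned. Here, GI50 denotes the concentration required for 50% inhibition of growth.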 Active and inactive are the calls of the source. Rule as the data show it: active = GI50 up to about 1.1 µM and inactive = higher.

Tests used:
Assay in all cases: NCI-60 cell line screen, 48 h
[1] = system: MDA-N
[2] = system: UACC-62
[3] = system: PC-3
[4] = system: SR
[5] = system: A498
[6] = system: CAKI-1
[7] = system: OVCAR-8
[8] = system: UO-31
[9] = system: CCRF-CEM
[10] = system: HOP-92
[11] = system: NCI/ADR-RES
[12] = system: T47D
[13] = system: MOLT-4
[14] = system: SNB-75
[15] = system: SNB-19
[16] = system: ACHN
[17] = system: SK-MEL-2
[18] = system: SF-539
[19] = system: OVCAR-5

Compound	GI50 [1]	GI50 [2]	GI50 [3]	GI50 [4]	GI50 [5]	GI50 [6]	GI50 [7]	GI50 [8]	GI50 [9]	GI50 [10]	GI50 [11]	GI50 [12]	GI50 [13]	GI50 [14]	GI50 [15]	GI50 [16]	GI50 [17]	GI50 [18]	GI50 [19]
CCN1CCC(O)(/C=C/c2ccc(C)cc2C)C(C(=O)/C=C/c2ccc(C)cc2C)C1 (stereo not given)	2.2 µM (inactive)	3.41 µM (inactive)	2.5 µM (inactive)	2.37 µM (inactive)	9.59 µM (inactive)	5.09 µM (inactive)	2.09 µM (inactive)	2.35 µM (inactive)	1.82 µM (inactive)	1.85 µM (inactive)	2.46 µM (inactive)	2.39 µM (inactive)	1.28 µM (inactive)	5.79 µM (inactive)	4.03 µM (inactive)	1.83 µM (inactive)	4.26 µM (inactive)	1.92 µM (inactive)	4.29 µM (inactive)
O=c1[nH]nc(-c2ccc([N+](=O)[O-])cc2)n1/N=C/c1ccc([N+](=O)[O-])cc1	> 100 µM (inactive)	71.4 µM (inactive)	57.9 µM (inactive)	52 µM (inactive)	> 100 µM (inactive)	> 100 µM (inactive)	> 100 µM (inactive)	> 100 µM (inactive)	45 µM (inactive)	> 100 µM (inactive)	64.7 µM (inactive)	> 100 µM (inactive)	23.6 µM (inactive)	> 100 µM (inactive)	> 100 µM (inactive)	> 100 µM (inactive)	> 100 µM (inactive)	> 100 µM (inactive)	> 100 µM (inactive)
COc1cc2ccc1OCc1cccc(n1)COc1ccc(cc1OC)/C=N\c1ccc(cc1)/N=C\2	> 100 µM (inactive)	> 100 µM (inactive)	> 100 µM (inactive)	> 100 µM (inactive)	> 100 µM (inactive)	> 100 µM (inactive)	> 100 µM (inactive)	> 100 µM (inactive)	> 100 µM (inactive)	> 100 µM (inactive)	> 100 µM (inactive)	> 100 µM (inactive)	> 100 µM (inactive)	> 100 µM (inactive)	> 100 µM (inactive)	> 100 µM (inactive)	> 100 µM (inactive)	> 100 µM (inactive)	> 100 µM (inactive)
C/C=C(\C)C(=O)OC1C(C)=C2C(C1OC(=O)CCCC)C(C)(OC(C)=O)CC(OC(=O)CCCC)C1(O)C2OC(=O)C1(C)O (stereo not given)	0.437 µM (active)	1.57 µM (inactive)	0.491 µM (active)	0.951 µM (active)	6.47 µM (inactive)	5.13 µM (inactive)	4.43 µM (inactive)	15.4 µM (inactive)	1.74 µM (inactive)	0.746 µM (active)	36.9 µM (inactive)	6.7 µM (inactive)	1.46 µM (inactive)	0.828 µM (active)	0.41 µM (active)	4.8 µM (inactive)	0.48 µM (active)	0.944 µM (active)	2.21 µM (inactive)
O=[N+]([O-])c1ccc2[nH]nc(OCc3ccccn3)c2c1	> 100 µM (inactive)	> 100 µM (inactive)	> 100 µM (inactive)	> 100 µM (inactive)	> 100 µM (inactive)	> 100 µM (inactive)	> 100 µM (inactive)	> 100 µM (inactive)	> 100 µM (inactive)	35.7 µM (inactive)	> 100 µM (inactive)	47 µM (inactive)	> 100 µM (inactive)	31.5 µM (inactive)	50.5 µM (inactive)	> 100 µM (inactive)	82.2 µM (inactive)	> 100 µM (inactive)	> 100 µM (inactive)
